11 compounds from ChEMBL document CHEMBL1201862, “PubChem BioAssay data set” (2004) can be followed below.

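Each compound was tested at five concentrations against cells in 96-well plates for 48 hours. At the GI50, growth is halved.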 The source made the active and inactive calls. Cut-off read from the data, not from the text of the source: active = GI50 up to about 1.1 µM and inactive = higher.

Some test systems named below: MOLT-4; OVCAR-3; HCT-116; NCI-H226; Hs-578T; U-251; HT-29; SK-OV-3; MCF7; MDA-MB-231; NCI-H460; UO-31; CAKI-1; SF-268; SW-620; UACC-62; NCI-H23; HCT-15; HOP-62.
Common to all, as to assay: NCI-60 cell line screen, 48 h

Regarding `CCCCCCCCCCCCCCCC(=O)OCC(COP(=O)(O)OCCNC(=O)CCSSc1ccccn1)OC(=O)CCCCCCCCCCCCCCC` (centres undefined), the GI50 with MOLT-4, in the test with OVCAR-3, with HCT-116, in the test on NCI-H226, with Hs-578T and in the test with U-251 was > 100 µM (inactive) each time. Also, the GI50 with HT-29, in the test on SK-OV-3, in the test with MCF7, in the test on MDA-MB-231, with NCI-H460 and with UO-31 was > 100 µM (inactive) each time. Further, the GI50 with CAKI-1 was > 100 µM (inactive); in the test on SF-268 it was > 100 µM (inactive); in the test with SW-620 it was > 100 µM (inactive); in the test on UACC-62, > 100 µM (inactive); with NCI-H23, > 100 µM (inactive); with HCT-15 it was over 100 µM. Further, the GI50 in the test on HOP-62 is > 100 µM (inactive).

Consider `N#CC(C#N)=CNC(=S)c1ccncc1`, for which the GI50 in the test on MOLT-4 was 64.3 µM (inactive); in the test on OVCAR-3, 0.117 µM (active); in the test with HCT-116, 53.6 µM (inactive); in the test on NCI-H226, > 100 µM (inactive); with Hs-578T it was 57.4 µM (inactive); in the test with U-251 it was > 100 µM (inactive). The GI50 was 46.9 µM (inactive) in the test with HT-29; > 100 µM (inactive) with SK-OV-3; 76.9 µM (inactive) in the test on MCF7; > 100 µM (inactive) in the test with MDA-MB-231; > 100 µM (inactive) with NCI-H460; 5.6 µM (inactive) in the test with UO-31. For the same compound, the GI50 in the test with CAKI-1 was 46.7 µM (inactive); with SF-268, 61.1 µM (inactive); in the test with SW-620, 64.9 µM (inactive); in the test on UACC-62 it was > 100 µM (inactive); in the test on NCI-H23, > 100 µM (inactive); in the test on HCT-15 it was 37.4 µM. Moreover, the GI50 in the test with HOP-62 is > 100 µM (inactive).

For `CO/C=C/C=C(\C#N)C(=O)OC`, the GI50 in the test on MOLT-4 is 16.9 µM (inactive); with OVCAR-3, > 100 µM (inactive); with HCT-116, > 100 µM (inactive); in the test with NCI-H226, > 100 µM (inactive); in the test with Hs-578T, > 100 µM (inactive); with U-251, > 100 µM (inactive). Moreover, the GI50 in the test with HT-29, with SK-OV-3, in the test on MCF7, in the test on MDA-MB-231, with NCI-H460 and in the test with UO-31 was > 100 µM (inactive) each time. In addition, the GI50 is > 100 µM (inactive) in the test on CAKI-1; > 100 µM (inactive) with SF-268; > 100 µM (inactive) with SW-620; > 100 µM (inactive) in the test with UACC-62; > 100 µM (inactive) with NCI-H23; over 100 µM in the test on HCT-15. Besides, the GI50 in the test on HOP-62 was > 100 µM (inactive).

Consider `Cc1ccsc1C(=O)C(CC(=O)c1cccs1)c1ccsc1` (centres undefined), for which the GI50 with MOLT-4 was 77.3 µM (inactive); in the test on OVCAR-3, > 100 µM (inactive); with HCT-116, 16.1 µM (inactive); in the test with NCI-H226, > 100 µM (inactive); with Hs-578T, > 100 µM (inactive); in the test with U-251, > 100 µM (inactive). Further, the GI50 is 93.1 µM (inactive) in the test on HT-29; > 100 µM (inactive) in the test with SK-OV-3; 76.2 µM (inactive) in the test on MCF7; 77.6 µM (inactive) in the test on MDA-MB-231; 33.5 µM (inactive) in the test with NCI-H460; 54.1 µM (inactive) with UO-31. The GI50 in the test with CAKI-1 is > 100 µM (inactive); with SF-268, > 100 µM (inactive); with SW-620 it was > 100 µM (inactive); in the test on UACC-62, > 10 µM (inactive); in the test with NCI-H23, > 100 µM (inactive); with HCT-15, over 100 µM. Further, the GI50 with HOP-62 is > 100 µM (inactive).

For `O=C1CSC(c2ccccc2O)N1c1ccc(Oc2ccc(Cl)cc2)c(Cl)c1` (centres undefined), the GI50 with MOLT-4 was 25.9 µM (inactive); in the test with OVCAR-3 it was 18.6 µM (inactive); in the test on HCT-116 it was 15.3 µM (inactive); in the test on NCI-H226, 30.8 µM (inactive); with Hs-578T, 14.9 µM (inactive); with U-251 it was 17.3 µM (inactive). Also, the GI50 is 19.7 µM (inactive) in the test on HT-29; 21 µM (inactive) in the test with SK-OV-3; 26.6 µM (inactive) in the test on MCF7; 16.9 µM (inactive) with MDA-MB-231; 19.4 µM (inactive) in the test on NCI-H460; 5.94 µM (inactive) in the test with UO-31. Also, the GI50 with CAKI-1 was 23.3 µM (inactive); in the test on SF-268 it was 12.9 µM (inactive); in the test on SW-620 it was 31.4 µM (inactive); with UACC-62 it was 16.4 µM (inactive); with NCI-H23, 18.1 µM (inactive); in the test with HCT-15, 19.5 µM. The GI50 in the test with HOP-62 was 18.2 µM (inactive).

Turning to `Nc1ccc(-c2ccc(Nc3cc(S(=O)(=O)O)c(N)c4c3C(=O)c3ccccc3C4=O)cc2)c(S(=O)(=O)O)c1`, the GI50 with MOLT-4 was 41.8 µM (inactive); in the test with OVCAR-3, > 100 µM (inactive); with HCT-116, > 100 µM (inactive); in the test with NCI-H226, > 100 µM (inactive); in the test with Hs-578T it was > 100 µM (inactive); with U-251, > 100 µM (inactive). In addition, the GI50 with HT-29, in the test on SK-OV-3, in the test with MCF7, in the test on MDA-MB-231, in the test on NCI-H460 and with UO-31 was > 100 µM (inactive) throughout. In addition, the GI50 in the test on CAKI-1 is > 100 µM (inactive); in the test on SF-268, > 100 µM (inactive); in the test with SW-620, > 100 µM (inactive); in the test with UACC-62 it was > 100 µM (inactive); in the test with NCI-H23, > 100 µM (inactive); in the test with HCT-15 it was over 100 µM. For the same compound, the GI50 in the test with HOP-62 is > 100 µM (inactive).

Turning to `O=C1Cc2c(-c3ccc(Cl)cc3)cc(-c3ccccc3)nc2-c2ccccc2N1`, the GI50 is 9.53 µM (inactive) in the test on MOLT-4; 11.7 µM (inactive) in the test on OVCAR-3; 3.44 µM (inactive) in the test on HCT-116; 10.8 µM (inactive) in the test on NCI-H226; 7.26 µM (inactive) in the test with Hs-578T; 3.08 µM (inactive) in the test on U-251. The GI50 with HT-29 is 4.5 µM (inactive); in the test with SK-OV-3, 4.46 µM (inactive); in the test on MCF7, 9.16 µM (inactive); in the test with MDA-MB-231 it was 4.35 µM (inactive); with NCI-H460, 2.1 µM (inactive); in the test on UO-31, 4.34 µM (inactive). In addition, the GI50 in the test with CAKI-1 is 4.86 µM (inactive); in the test on SF-268 it was 12.1 µM (inactive); with SW-620, 11 µM (inactive); with UACC-62, 11.9 µM (inactive); in the test with NCI-H23, 10.5 µM (inactive); in the test on HCT-15, 4.85 µM. Moreover, in the test on HOP-62, the GI50 was 8.24 µM (inactive).

For `CC(C)(C)OC(=O)NCCNC(=O)CN(CC(=O)O)C1CCCCC1N(CC(=O)O)CC(=O)O` (centres undefined), the GI50 with MOLT-4, in the test with OVCAR-3, in the test on HCT-116, with NCI-H226, in the test with Hs-578T and in the test with U-251 was > 100 µM (inactive) throughout. Besides, the GI50 in the test with HT-29, in the test with SK-OV-3, in the test with MCF7, in the test on MDA-MB-231, in the test on NCI-H460 and with UO-31 was > 100 µM (inactive) each time. Further, the GI50 in the test with CAKI-1 was > 100 µM (inactive); with SF-268 it was > 100 µM (inactive); in the test on SW-620, > 100 µM (inactive); in the test on UACC-62, > 100 µM (inactive); with NCI-H23, > 100 µM (inactive); in the test with HCT-15, over 100 µM. The GI50 in the test on HOP-62 was > 100 µM (inactive).

Take `O=C(CC(C(=O)c1ccsc1)c1cccs1)c1ccccc1` (centres undefined): the GI50 in the test on MOLT-4 was 36.2 µM (inactive); with OVCAR-3 it was > 100 µM (inactive); in the test on HCT-116, 71.4 µM (inactive); in the test on NCI-H226, > 100 µM (inactive); in the test with Hs-578T, > 100 µM (inactive); in the test on U-251 it was 98.9 µM (inactive). Moreover, the GI50 with HT-29 is 82.8 µM (inactive); in the test with SK-OV-3, > 100 µM (inactive); in the test with MCF7, 45.1 µM (inactive); in the test on MDA-MB-231, 56.8 µM (inactive); in the test with NCI-H460 it was 36.6 µM (inactive); with UO-31, 19.2 µM (inactive). Besides, the GI50 with CAKI-1 is > 100 µM (inactive); in the test with SF-268 it was > 100 µM (inactive); with SW-620, > 100 µM (inactive); in the test on UACC-62, 49.2 µM (inactive); in the test on NCI-H23, 29.7 µM (inactive); with HCT-15 it was 56.4 µM. The GI50 in the test on HOP-62 is > 100 µM (inactive).

Regarding `COc1cc2c3c(c4ccc(OC)c(OC)c4c2cc1OC)CN1CCC[C@@H]1C3` [TYLOCREBRINE], the GI50 in the test with MOLT-4 was 0.043 µM (active); with OVCAR-3, 0.107 µM (active); with HCT-116, 0.0266 µM (active); in the test with NCI-H226 it was < 0.0176 µM (active); in the test with Hs-578T, 0.0182 µM (active); with U-251, 0.019 µM (active). In addition, the GI50 was 0.0208 µM (active) in the test with HT-29; 0.124 µM (active) with SK-OV-3; 0.0548 µM (active) with MCF7; 0.0204 µM (active) in the test on MDA-MB-231; 0.0392 µM (active) in the test on NCI-H460; < 0.01 µM (active) in the test with UO-31. Further, the GI50 is < 0.0216 µM (active) with CAKI-1; < 0.0171 µM (active) in the test on SF-268; 0.0586 µM (active) in the test with SW-620; < 0.01 µM (active) in the test with UACC-62; 0.016 µM (active) in the test with NCI-H23; 0.0312 µM in the test with HCT-15. In addition, the GI50 with HOP-62 was 0.0316 µM (active).

Regarding `COc1ccc(NC(=S)N/N=C(\C)c2nc3cccnc3[nH]2)cc1`, the GI50 in the test on MOLT-4 is 3.41 µM (inactive); in the test with OVCAR-3, 1.79 µM (inactive); in the test on HCT-116 it was 3.02 µM (inactive); with NCI-H226, 3.73 µM (inactive); with Hs-578T, 19.6 µM (inactive); in the test on U-251, 3.87 µM (inactive). The GI50 in the test on HT-29 was 5.37 µM (inactive); in the test on SK-OV-3, 13.5 µM (inactive); in the test on MCF7 it was 3.41 µM (inactive); with MDA-MB-231, 5.9 µM (inactive); in the test with NCI-H460 it was 2.94 µM (inactive); with UO-31, 1.97 µM (inactive). Also, the GI50 is 3.96 µM (inactive) in the test with CAKI-1; 4.04 µM (inactive) in the test on SF-268; 6.87 µM (inactive) in the test on SW-620; 3.93 µM (inactive) in the test on UACC-62; 10 µM (inactive) in the test with NCI-H23; 4.36 µM in the test with HCT-15. In the test with HOP-62, the GI50 is 7.5 µM (inactive).
